From PubChem BioAssay AID330 (DTP/NCI, 2004)
Values joined by “and” are separate entries in the source; they are usually repeats but may differ in a detail not shown here. Equal entries are not always repeated. Inconclusive results and toxic doses are left out.

Test system: P388 leukemia ip, CD2F1 mice, survival T/C
Assay: NCI In Vivo Anticancer Drug Screen. Data for tumor model P388 Leukemia (intraperitoneal) in CD2F1 (CDF1) mice
Details: endpoint: median survival time, higher = longer survival
Summary of the method: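 Mice carrying the transplanted tumor received test compound or vehicle. Survival was recorded in each group, and the value is the treated-group measurement divided by that of the vehicle-treated control group.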

[1] = dose: 100.0 mg/kg/injection, schedule: Q04DX003 (ip), vehicle: Klucel (hydroxypropylcellulose) (HPC)
[2] = dose: 400.0 mg/kg/injection, schedule: Q04DX003 (ip), vehicle: Klucel (hydroxypropylcellulose) (HPC)

In the case of `N[C@H](C(=O)O)[C@@H]1CC(Cl)=NO1`, the T/C (dose: 0.03 mg/kg/injection, schedule: Q01DX009 (ip), vehicle: saline) is reported as 105 % of control and 108 % of control, the T/C (dose: 0.06 mg/kg/injection, schedule: Q01DX009 (ip), vehicle: saline) is reported as 113 % of control and the T/C (dose: 0.13 mg/kg/injection, schedule: Q01DX009 (ip), vehicle: saline) is reported as 120 % of control. For the same compound, the T/C (dose: 0.25 mg/kg/injection, schedule: Q01DX009 (ip), vehicle: saline) was 150 % of control, the T/C (dose: 0.5 mg/kg/injection, schedule: Q01DX009 (ip), vehicle: saline) was 155 % of control and the T/C (dose: 0.63 mg/kg/injection, schedule: Q01DX009 (ip), vehicle: saline) was 174 % of control. For the same compound, the T/C (dose: 0.75 mg/kg/injection, schedule: Q01DX009 (ip), vehicle: saline) was 155 % of control, the T/C (dose: 1.0 mg/kg/injection, schedule: Q01DX009 (ip), vehicle: saline) was 150 % of control and 171 % of control and the T/C (dose: 1.0 mg/kg/injection, schedule: Q01DX009 (ip), vehicle: water) was 121 % of control. For the same compound, the T/C (dose: 1.25 mg/kg/injection, schedule: Q01DX009 (ip), vehicle: saline) was 213 % of control, the T/C (dose: 1.94 mg/kg/injection, schedule: Q01DX009 (ip), vehicle: saline) was 165 % of control and 179 % of control and 192 % of control and the T/C (dose: 2.0 mg/kg/injection, schedule: Q01DX005 (ip), vehicle: saline) was 119 % of control. The T/C (dose: 2.0 mg/kg/injection, schedule: Q01DX005 (ip), vehicle: water) was 111 % of control, the T/C (dose: 2.0 mg/kg/injection, schedule: Q01DX005 (iv), vehicle: saline) was 119 % of control and the T/C (dose: 2.0 mg/kg/injection, schedule: Q01DX009 (ip), vehicle: saline) was 152 % of control and 164 % of control and 198 % of control. For the same compound, the T/C (dose: 2.0 mg/kg/injection, schedule: Q01DX009 (ip), vehicle: water) was 153 % of control, the T/C (dose: 2.3 mg/kg/injection, schedule: Q01DX009 (ip), vehicle: saline) was 190 % of control and the T/C (dose: 2.5 mg/kg/injection, schedule: Q01DX009 (ip), vehicle: saline) was 235 % of control. The T/C (dose: 3.0 mg/kg/injection, schedule: Q01DX005 (iv), vehicle: saline) was 119 % of control, the T/C (dose: 3.0 mg/kg/injection, schedule: Q01DX009 (ip), vehicle: saline) was 175 % of control and 180 % of control and 238 % of control and the T/C (dose: 3.12 mg/kg/injection, schedule: Q01DX005 (ip), vehicle: water) was 155 % of control. For the same compound, the T/C (dose: 3.24 mg/kg/injection, schedule: Q01DX009 (ip), vehicle: saline) was 177 % of control and 189 % of control and 203 % of control, the T/C (dose: 3.5 mg/kg/injection, schedule: Q01DX009 (ip), vehicle: saline) was 194 % of control and the T/C (dose: 4.0 mg/kg/injection, schedule: Q01DX005 (ip), vehicle: saline) was 161 % of control. The T/C (dose: 4.0 mg/kg/injection, schedule: Q01DX005 (iv), vehicle: saline) was 119 % of control, the T/C (dose: 4.0 mg/kg/injection, schedule: Q01DX009 (ip), vehicle: saline) was 161 % of control and 190 % of control and the T/C (dose: 4.0 mg/kg/injection, schedule: Q01DX009 (ip), vehicle: water) was 112 % of control. For the same compound, the T/C (dose: 4.32 mg/kg/injection, schedule: Q01DX005 (ip), vehicle: saline) was 154 % of control, the T/C (dose: 5.0 mg/kg/injection, schedule: Q01DX005 (ip), vehicle: saline) was 158 % of control and the T/C (dose: 5.0 mg/kg/injection, schedule: Q01DX009 (ip), vehicle: saline) was 235 % of control. The T/C (dose: 5.3 mg/kg/injection, schedule: Q01DX009 (ip), vehicle: saline) was 203 % of control, the T/C (dose: 5.4 mg/kg/injection, schedule: Q01DX009 (ip), vehicle: saline) was 163 % of control and 188 % of control and 204 % of control and the T/C (dose: 6.0 mg/kg/injection, schedule: Q01DX009 (ip), vehicle: saline) was 173 % of control and 186 % of control and 319 % of control. For the same compound, the T/C (dose: 6.25 mg/kg/injection, schedule: Q01DX005 (ip), vehicle: water) was 150 % of control and 168 % of control, the T/C (dose: 7.2 mg/kg/injection, schedule: Q01DX005 (ip), vehicle: saline) was 156 % of control and the T/C (dose: 8.0 mg/kg/injection, schedule: Q01DX005 (ip), vehicle: saline) was 171 % of control and 182 % of control. The T/C (dose: 8.0 mg/kg/injection, schedule: Q01DX005 (iv), vehicle: saline) was 119 % of control, the T/C (dose: 8.0 mg/kg/injection, schedule: Q01DX009 (ip), vehicle: saline) was 186 % of control and 210 % of control and the T/C (dose: 8.0 mg/kg/injection, schedule: Q01DX009 (ip), vehicle: water) was 184 % of control. The T/C (dose: 9.0 mg/kg/injection, schedule: Q01DX009 (ip), vehicle: saline) was 99 % of control, the T/C (dose: 10.0 mg/kg/injection, schedule: Q01DX005 (ip), vehicle: saline) was 164 % of control and the T/C (dose: 12.0 mg/kg/injection, schedule: Q01DX005 (ip), vehicle: saline) was 220 % of control. The T/C (dose: 12.0 mg/kg/injection, schedule: Q01DX005 (iv), vehicle: saline) was 171 % of control, the T/C (dose: 12.5 mg/kg/injection, schedule: Q01DX005 (ip), vehicle: water) was 155 % of control and 182 % of control and the T/C (dose: 15.0 mg/kg/injection, schedule: Q01DX009 (ip), vehicle: saline) was 98 % of control and 100 % of control. The T/C (dose: 16.0 mg/kg/injection, schedule: Q01DX005 (ip), vehicle: saline) was 164 % of control and 181 % of control, the T/C (dose: 16.0 mg/kg/injection, schedule: Q01DX005 (ip), vehicle: water) was 152 % of control and 163 % of control and the T/C (dose: 16.0 mg/kg/injection, schedule: Q01DX009 (ip), vehicle: saline) was 102 % of control and 218 % of control. For the same compound, the T/C (dose: 16.0 mg/kg/injection, schedule: Q01DX009 (ip), vehicle: water) was 198 % of control, the T/C (dose: 20.0 mg/kg/injection, schedule: Q01DX005 (ip), vehicle: saline) was 169 % of control and 176 % of control and the T/C (dose: 20.0 mg/kg/injection, schedule: Q04DX003 (ip), vehicle: saline) was 158 % of control. For the same compound, the T/C (dose: 24.0 mg/kg/injection, schedule: Q01DX005 (ip), vehicle: saline) was 222 % of control, the T/C (dose: 24.0 mg/kg/injection, schedule: Q01DX005 (iv), vehicle: saline) was 108 % of control and the T/C (dose: 25.0 mg/kg/injection, schedule: Q01DX005 (ip), vehicle: water) was 155 % of control and 187 % of control. The T/C (dose: 32.0 mg/kg/injection, schedule: Q01DX005 (ip), vehicle: saline) was 225 % of control, the T/C (dose: 32.0 mg/kg/injection, schedule: Q01DX005 (ip), vehicle: water) was 170 % of control and the T/C (dose: 40.0 mg/kg/injection, schedule: Q04DX003 (ip), vehicle: saline) was 180 % of control and 196 % of control. For the same compound, the T/C (dose: 50.0 mg/kg/injection, schedule: Q04DX003 (ip), vehicle: other) was 163 % of control, the T/C (dose: 80.0 mg/kg/injection, schedule: Q04DX003 (ip), vehicle: saline) was 150 % of control and 190 % of control and 297 % of control and the T/C (dose: 100.0 mg/kg/injection, schedule: Q04DX003 (ip), vehicle: other) was 161 % of control. For the same compound, the T/C (dose: 160.0 mg/kg/injection, schedule: Q04DX003 (ip), vehicle: saline) was 118 % of control and 164 % of control and 250 % of control.
`COC1CC(C23C4CC2C3C2CC/C=C\CCC24)CC1OC` (stereo unspecified) was tested, and the T/C (dose: 50.0 mg/kg/injection, schedule: Q01DX009 (ip), vehicle: saline with Tween-80) was 98 % of control, the T/C (dose: 100.0 mg/kg/injection, schedule: Q01DX009 (ip), vehicle: saline with Tween-80) was 100 % of control and the T/C (dose: 200.0 mg/kg/injection, schedule: Q01DX009 (ip), vehicle: saline with Tween-80) was 102 % of control.
In the case of `N#Cc1cccn1OCN1C(=O)c2ccccc2C1=O`, the T/C (dose: 25.0 mg/kg/injection, schedule: Q04DX003 (ip), vehicle: Klucel (hydroxypropylcellulose) (HPC)) is reported as 100 % of control, the T/C (dose: 50.0 mg/kg/injection, schedule: Q04DX003 (ip), vehicle: Klucel (hydroxypropylcellulose) (HPC)) is reported as 103 % of control and the T/C [1] is reported as 100 % of control and 92 % of control. The T/C [2] was 87 % of control.
For `Nc1nc2c(C(=O)N3CCCC3)nnn2c2cccc(Cl)c12`, the T/C (dose: 60.0 mg/kg/injection, schedule: Q01DX005 (ip), vehicle: saline with Tween-80) was 107 % of control, the T/C (dose: 120.0 mg/kg/injection, schedule: Q01DX005 (ip), vehicle: saline with Tween-80) was 106 % of control and the T/C (dose: 240.0 mg/kg/injection, schedule: Q01DX005 (ip), vehicle: saline with Tween-80) was 106 % of control.
`CN(N=O)C1=NC(C)(CCl)P(=O)(NNc2ncccn2)O1` (stereo unspecified) was tested, and the T/C (dose: 60.0 mg/kg/injection, schedule: Q01DX005 (ip), vehicle: saline) was 108 % of control and the T/C (dose: 120.0 mg/kg/injection, schedule: Q01DX005 (ip), vehicle: saline) was 110 % of control.
With `CCc1cccc(NC(=O)NNC(=O)c2ccncc2)c1` the T/C (dose: 50.0 mg/kg/injection, schedule: Q01DX009 (ip), vehicle: Klucel (hydroxypropylcellulose) (HPC)) was 96 % of control and the T/C (dose: 100.0 mg/kg/injection, schedule: Q01DX009 (ip), vehicle: Klucel (hydroxypropylcellulose) (HPC)) was 100 % of control.
For `Cn1nnnc1/C=C/c1ccccc1`, the T/C [1] was 106 % of control, the T/C (dose: 200.0 mg/kg/injection, schedule: Q04DX003 (ip), vehicle: Klucel (hydroxypropylcellulose) (HPC)) was 104 % of control and the T/C [2] was 105 % of control.
`COc1cc2c(cc1O)CCCCC2` was tested, and the T/C (dose: 100.0 mg/kg/injection, schedule: Q01DX009 (sc), vehicle: olive oil, sesame oil, peanut oil) was 101 % of control, the T/C (dose: 200.0 mg/kg/injection, schedule: Q01DX009 (sc), vehicle: olive oil, sesame oil, peanut oil) was 101 % of control and the T/C (dose: 400.0 mg/kg/injection, schedule: Q01DX009 (sc), vehicle: olive oil, sesame oil, peanut oil) was 104 % of control.
